# From PubChem BioAssay AID278 (DTP/NCI, 2004)
# Results filed as inconclusive are left out. Residues, ends and D or L forms follow the SMILES beside them. *: point of attachment. Trt = c1ccc(C(c2ccccc2)(c2ccccc2)*)cc1; Cbz = O=C(OCc1ccccc1)*; Bn = c1ccc(C*)cc1; βAla = NCCC(=O)O
# System: nude mice, A549 intrarenal xenograft, tumor weight change
# Test: NCI In Vivo Anticancer Drug Screen. Data for tumor model A549 Human Adenocarcinoma of Lung with characteristics of Type II Alveolar Epithelial cells (intrarenal inoculation) in NU/NU BALB/C (nude) mice
# Settings: endpoint: mean tumor weight change, schedule: Q04DX003 (ip), higher = larger tumour
# Experimental: The antitumor activity of compounds was measured in mice bearing transplantable tumors. Survival or tumor size were measured and the results are expressed as the measurement made in the treated group (T) divided by the measurement made in the vehicle treated control group (C). The tumor model used in this assay is A549 Human Adenocarcinoma of Lung with characteristics of Type II Alveolar Epithelial cells (intrarenal inoculation) in NU/NU BALB/C (nude) mice
# [1] = dose: 150.0 mg/kg/injection, vehicle: Klucel (hydroxypropylcellulose) (HPC)
# [2] = dose: 300.0 mg/kg/injection, vehicle: Klucel (hydroxypropylcellulose) (HPC)
# [3] = dose: 600.0 mg/kg/injection, vehicle: Klucel (hydroxypropylcellulose) (HPC)
# [4] = dose: 100.0 mg/kg/injection, vehicle: saline with Tween-80
# [5] = dose: 25.0 mg/kg/injection, vehicle: saline with Tween-80
# [6] = dose: 50.0 mg/kg/injection, vehicle: saline with Tween-80
# [7] = dose: 12.5 mg/kg/injection, vehicle: saline with Tween-80
smiles,measurement,setting,value
c1ccc2[nH]c(CN(CCN(Cc3nc4ccccc4[nH]3)Cc3nc4ccccc4[nH]3)Cc3nc4ccccc4[nH]3)nc2c1,T/C,"dose: 6.25 mg/kg/injection, vehicle: DMSO",124 % of control
same,T/C,"dose: 12.5 mg/kg/injection, vehicle: DMSO",102 % of control
same,T/C,"dose: 25.0 mg/kg/injection, vehicle: DMSO",157 % of control
Oc1c(Cl)cc(Cl)cc1C=NCCSc1ccc(Cl)cc1,T/C,[1],90 % of control
same,T/C,[2],100 % of control
same,T/C,[3],83 % of control
CN(C)C(=O)Nc1ccc(Cl)cc1,T/C,"dose: 150.0 mg/kg/injection, vehicle: suspension in saline",120 % of control
same,T/C,"dose: 300.0 mg/kg/injection, vehicle: suspension in saline",74 % of control
same,T/C,"dose: 600.0 mg/kg/injection, vehicle: suspension in saline",112 % of control
CCOc1ccc(C(C)c2cc3c(cc2OC)OCO3)cc1 (stereo not drawn),T/C,"dose: 100.0 mg/kg/injection, vehicle: distilled water + Tween-80",61 % of control
same,T/C,"dose: 200.0 mg/kg/injection, vehicle: distilled water + Tween-80",59 % of control
same,T/C,"dose: 400.0 mg/kg/injection, vehicle: distilled water + Tween-80",63 % of control
Cc1ccc(/C=C/C(=O)/C=C/c2ccc(C)o2)o1,T/C,"dose: 100.0 mg/kg/injection, vehicle: DMSO",123 % of control
same,T/C,"dose: 200.0 mg/kg/injection, vehicle: DMSO",73 % of control
same,T/C,"dose: 400.0 mg/kg/injection, vehicle: DMSO",78 % of control
same,T/C,"dose: 800.0 mg/kg/injection, vehicle: DMSO",68 % of control
CC(=O)/C(=C\c1ccc(Cl)c(Cl)c1)C(=O)CCN(C)C,T/C,"dose: 12.5 mg/kg/injection, vehicle: saline",78 % of control
same,T/C,"dose: 25.0 mg/kg/injection, vehicle: saline",39 % of control
same,T/C,"dose: 50.0 mg/kg/injection, vehicle: saline",32 % of control
CCOC(=O)/C=C/C(=O)N1CCN(C(=O)/C=C/C(=O)OCC)C(C)C1 (stereo not drawn),T/C,[1],50 % of control
same,T/C,[2],71 % of control
same,T/C,[3],49 % of control
COc1ccc2oc3c(ccc[n+]3C)c(=O)c2c1,T/C,[4],57 % of control
same,T/C,"dose: 200.0 mg/kg/injection, vehicle: saline with Tween-80",38 % of control
same,T/C,"dose: 400.0 mg/kg/injection, vehicle: saline with Tween-80",32 % of control
Oc1cccc2ccccc12,T/C,"dose: 37.5 mg/kg/injection, vehicle: water",102 % of control
same,T/C,"dose: 75.0 mg/kg/injection, vehicle: water",54 % of control
CC1/C=C/C=C/CC/C=C/C=C/C=C/C=C/C(OC2OC(C)C(O)C(N)C2O)CC2OC(CC(O)C(O)CCC(O)CC(O)CC(O)CC(=O)OC(C)C(C)C1O)CC(O)C2C(=O)O (stereo not drawn),T/C,[5],97 % of control
same,T/C,[6],69 % of control
same,T/C,[4],62 % of control
O=NNc1ccc(Cl)cn1,T/C,"dose: 5.0 mg/kg/injection, vehicle: water",63 % of control
same,T/C,"dose: 6.25 mg/kg/injection, vehicle: water",113 % of control
same,T/C,"dose: 10.0 mg/kg/injection, vehicle: water",68 % of control
same,T/C,"dose: 12.5 mg/kg/injection, vehicle: water",62 % of control
same,T/C,"dose: 20.0 mg/kg/injection, vehicle: water",100 % of control
same,T/C,"dose: 25.0 mg/kg/injection, vehicle: water",61 % of control
same,T/C,"dose: 40.0 mg/kg/injection, vehicle: water",57 % of control
same,T/C,"dose: 50.0 mg/kg/injection, vehicle: water",26 % of control
C=CCSC(C)=O,T/C,"dose: 62.5 mg/kg/injection, vehicle: suspension in saline",83 % of control
same,T/C,"dose: 125.0 mg/kg/injection, vehicle: suspension in saline",53 % of control
same,T/C,"dose: 250.0 mg/kg/injection, vehicle: suspension in saline",90 % of control
same,T/C,"dose: 500.0 mg/kg/injection, vehicle: suspension in saline",71 % of control
COc1cc(C2=NCCc3cc4c(cc32)OCO4)cc(OC)c1OC,T/C,"dose: 37.5 mg/kg/injection, vehicle: saline + alcohol",73 % of control
same,T/C,"dose: 75.0 mg/kg/injection, vehicle: saline + alcohol",49 % of control
same,T/C,"dose: 150.0 mg/kg/injection, vehicle: saline + alcohol",31 % of control
Cc1cc(NC(=S)SCc2ccc3c(c2)OCO3)ccc1Cl,T/C,[2],61 % of control
same,T/C,[3],73 % of control
CC[C@]1(O)C[C@H]2CN(CCc3c([nH]c4ccccc34)[C@@](C(=O)OC)(c3cc4c(cc3OC)N(C)[C@H]3[C@@](O)(C(=O)OC)[C@H](OC(C)=O)[C@]5(CC)C=CCN6CC[C@]43[C@@H]65)C2)C1,T/C,"dose: 0.67 mg/kg/injection, vehicle: Klucel (hydroxypropylcellulose) (HPC)",-2 % of control
same,T/C,"dose: 1.0 mg/kg/injection, vehicle: Klucel (hydroxypropylcellulose) (HPC)",-49 % of control
O=C(NC(Cc1ccc(I)cc1)C(=O)O)c1ccc(Br)cc1 (stereo not drawn),T/C,"dose: 37.5 mg/kg/injection, vehicle: other",51 % of control
same,T/C,"dose: 37.5 mg/kg/injection, vehicle: sodium bicarbonate",78 % of control
same,T/C,"dose: 75.0 mg/kg/injection, vehicle: other",7 % of control
same,T/C,"dose: 75.0 mg/kg/injection, vehicle: sodium bicarbonate",103 % of control
same,T/C,"dose: 150.0 mg/kg/injection, vehicle: other",9 % of control
same,T/C,"dose: 150.0 mg/kg/injection, vehicle: sodium bicarbonate",83 % of control
C[n+]1c(-c2ccc(NC(=O)c3ccc(C(=O)Nc4ccc(-c5cn6ccccc6[n+]5C)cc4)cc3)cc2)cn2ccccc21,T/C,[7],47 % of control
same,T/C,[5],49 % of control
CC[C@@]1(O)C(=O)OCc2c1cc1n(c2=O)Cc2cc3ccccc3nc2-1,T/C,"dose: 2.0 mg/kg/injection, vehicle: saline with Tween-80",31 % of control
same,T/C,"dose: 4.0 mg/kg/injection, vehicle: saline with Tween-80",29 % of control
same,T/C,"dose: 6.0 mg/kg/injection, vehicle: saline with Tween-80",-21 % of control
same,T/C,"dose: 8.0 mg/kg/injection, vehicle: saline with Tween-80",17 % of control
same,T/C,"dose: 10.0 mg/kg/injection, vehicle: saline with Tween-80",-80 % of control
same,T/C,"dose: 16.0 mg/kg/injection, vehicle: saline with Tween-80",12 % of control
NC(=S=O)C(N)=S=O,T/C,"dose: 125.0 mg/kg/injection, vehicle: saline with Tween-80",97 % of control
same,T/C,"dose: 250.0 mg/kg/injection, vehicle: saline with Tween-80",98 % of control
same,T/C,"dose: 500.0 mg/kg/injection, vehicle: saline with Tween-80",100 % of control
COC(=O)C(CSC(c1ccccc1)(c1ccccc1)c1ccccc1)NC(=O)C(CSCc1ccccc1)NC(=O)CCNC(=O)OCc1ccccc1 (stereo not drawn) ({Cbz-βAla}-Cys(Bn)-Cys(Trt)-OMe; configuration not given here),T/C,"dose: 100.0 mg/kg/injection, vehicle: Klucel + Tween-80",153 % of control
same,T/C,"dose: 200.0 mg/kg/injection, vehicle: Klucel + Tween-80",112 % of control
same,T/C,"dose: 400.0 mg/kg/injection, vehicle: Klucel + Tween-80",161 % of control
same,T/C,"dose: 800.0 mg/kg/injection, vehicle: Klucel + Tween-80",109 % of control
O=[N+]([O-])c1ccc(N(CCO)CCO)c2c1no[n+]2[O-],T/C,[7],53 % of control
same,T/C,[5],83 % of control
same,T/C,[6],34 % of control
